Data: the NIST ThermoML archive (doi:10.1021/je200710t)
Numbers after ± are expanded uncertainties.

What was measured:
[1] = for mass density / viscosity: 101.33 kPa, Liquid; for Glass transition temperature: DTA
[2] = refractive index (Na D-line) (dimensionless); conditions: 101.33 kPa, Liquid, Standard Abbe refractometry

| mass density ([1]; 298.15 K) [kg/m3] | mass density ([1]; 303.15 K) [kg/m3] | mass density ([1]; 308.15 K) [kg/m3] | mass density ([1]; 313.15 K) [kg/m3] | mass density ([1]; 318.15 K) [kg/m3] | mass density ([1]; 323.15 K) [kg/m3] | viscosity ([1]; 323.15 K) [mPa·s] | mass density ([1]; 328.15 K) [kg/m3] | viscosity ([1]; 328.15 K) [mPa·s] | mass density ([1]; 333.15 K) [kg/m3] | viscosity ([1]; 333.15 K) [mPa·s] | mass density ([1]; 338.15 K) [kg/m3] | viscosity ([1]; 338.15 K) [mPa·s] | mass density ([1]; 343.15 K) [kg/m3] | viscosity ([1]; 343.15 K) [mPa·s] | mass density ([1]; 348.15 K) [kg/m3] | viscosity ([1]; 348.15 K) [mPa·s] | mass density ([1]; 353.15 K) [kg/m3] | viscosity ([1]; 353.15 K) [mPa·s] | Glass transition temperature [1] [°C] | other results | Compound |
| --- | --- | --- | --- | --- | --- | --- | --- | --- | --- | --- | --- | --- | --- | --- | --- | --- | --- | --- | --- | --- | --- |
| 1202.67 ± 2.5 | 1200.28 ± 2.5 | 1197.33 ± 2.5 | 1194.37 ± 2.5 | 1191.42 ± 2.4 | 1188.5 ± 2.4 | 95152 ± 19000 | 1185.59 ± 2.4 | 42665 ± 7800 | 1182.69 ± 2.4 | 20463 ± 3300 | 1179.8 ± 2.4 | 10434 ± 1500 | 1176.88 ± 2.3 | 5635 ± 720 | 1174.01 ± 2.3 | 3190 ± 360 | 1171.16 ± 2.3 | 1958 ± 190 | 16.21 ± 4 | – | N#CCCn1cc[n+](Cc2ccccc2)c1.[Cl-] [1-(2-cyanoethyl)-3-(phenylmethyl)-1H-imidazolium chloride] |
| 1255.05 ± 3.5 | 1252.2 ± 3.5 | 1249.38 ± 3.5 | 1246.58 ± 3.5 | 1243.81 ± 3.4 | 1241.05 ± 3.4 | 6721 ± 890 | 1238.32 ± 3.4 | 4213 ± 500 | 1235.59 ± 3.4 | 2708 ± 290 | 1232.86 ± 3.3 | 1817 ± 180 | 1230.13 ± 3.3 | 1245 ± 110 | 1227.41 ± 3.3 | 873 ± 68 | 1224.57 ± 3.3 | 632 ± 44 | 14.50 ± 4 | refractive index ([2]; 293.15 K): 1.54996 ± 0.00052; refractive index ([2]; 298.15 K): 1.54847 ± 0.00052; refractive index ([2]; 303.15 K): 1.54699 ± 0.00052; refractive index ([2]; 308.15 K): 1.54554 ± 0.00052; refractive index ([2]; 313.15 K): 1.54412 ± 0.00052; refractive index ([2]; 318.15 K): 1.54277 ± 0.00052; refractive index ([2]; 323.15 K): 1.54133 ± 0.00052; refractive index ([2]; 328.15 K): 1.53985 ± 0.00052; refractive index ([2]; 333.15 K): 1.53847 ± 0.00052; mass density ([1]; 293.15 K): 1257.9 ± 3.6 kg/m3; viscosity ([1]; 303.15 K): 62813 ± 12000 mPa·s; viscosity ([1]; 308.15 K): 33772 ± 5900 mPa·s; viscosity ([1]; 313.15 K): 19046 ± 3100 mPa·s; viscosity ([1]; 318.15 K): 11119 ± 1600 mPa·s | N#CCCn1cc[n+](CCO)c1.[Cl-] [1-(2-cyanoethyl)-3-(2-hydroxyethyl)-1H-imidazolium chloride] |
